Test results reported in the RepoRT retention time repository (doi:10.1021/acs.analchem.1c00972).

Columns and labels:
[1] = RP, Waters ACQUITY UPLC BEH C18, 100 × 1 mm, 1.7 µm, 50 °C, 0.3 mL/min, estimated dead time 0.17 min; A: water + 10 mM ammonium bicarbonate; B: 10% water + 90% methanol + 10 mM ammonium bicarbonate; gradient (min/%B) 0/0 15/100 21/100 22/0 30/0; settings: stereoisomer not certain
[2] = RP, Waters ACQUITY UPLC BEH C18, 100 × 1 mm, 1.7 µm, 50 °C, 0.3 mL/min, estimated dead time 0.17 min; A: water + 0.1% formic acid + 20 mM ammonium formate; B: methanol + 0.1% formic acid + 20 mM ammonium formate; gradient (min/%B) 0/0 15/100 21/100 22/0 30/0; settings: stereoisomer not certain

N#Cc1c(Cl)c(Cl)c(O)c(C(N)=O)c1Cl
LC retention time [1]: 8.11 min
LC retention time [2]: 10 min

CON=C(C(=O)O)c1ccccc1CON=C(C)c1cccc(C(F)(F)F)c1
LC retention time [1]: 14.5 min
LC retention time [2]: 15.6 min

Cn1c(=O)nc(NC(C)(C)C)[nH]c1=O
LC retention time [1]: 6.95 min
LC retention time [2]: 8.56 min

CCc1cccc(C)c1N(C(=O)CS(=O)(=O)O)C(C)C(=O)O (centres undefined)
LC retention time [1]: 8.62 min
LC retention time [2]: 11 min

CCCN(CCOc1c(Cl)cc(Cl)cc1Cl)C(N)=O
LC retention time [1]: 16.2 min
LC retention time [2]: 15.9 min

CN1COCN(Cc2cnc(Cl)s2)C1=N
LC retention time [1]: 6.91 min
LC retention time [2]: 6.25 min

CN1COCN(Cc2cnc(Cl)s2)C1=O
LC retention time [1]: 9.5 min
LC retention time [2]: 9.42 min

CN1Cc2c(ccc3c2OCO3)C2C(O)Cc3cc4c(cc3C21)OCO4 (single isomer, unassigned; (+)) [(+)-Chelidonine]
LC retention time [1]: 15.3 min
LC retention time [2]: 9.34 min

C=C1C(=O)OC2C=C(C)CCC=C(C)CCC12 (single isomer, unassigned; (+)) [(+)-Costunolide]
LC retention time [1]: 15.3 min
LC retention time [2]: 15 min

COc1ccc2c(c1O)-c1c(OC)c(OC)cc3c1C(C2)N(C)CC3 (single isomer, unassigned; (+)) [(+)-Isocorydin]
LC retention time [1]: 13.6 min
LC retention time [2]: 8.65 min

COc1cc2c3c(c1OC)-c1ccccc1CC3N(C)CC2 (single isomer, unassigned; (-)) [(-)-Nuciferine]
LC retention time [1]: 15.6 min
LC retention time [2]: 10.5 min

CN1C2CC(OC(=O)C(CO)c3ccccc3)CC1C1OC12 (single isomer, unassigned; (-)) [(-)-Scopolamine]
LC retention time [1]: 11.2 min
LC retention time [2]: 7.05 min

O=C1CC2OCC=C3CN4CCC56c7ccccc7N1C5C2C3CC46 (single isomer, unassigned; (-)) [(-)-Strychnine]
LC retention time [1]: 12.3 min
LC retention time [2]: 7.73 min

O=C1NCCN1Cc1ccc(Cl)nc1 [Imidacloprid-urea]
LC retention time [1]: 8.68 min

CC(=O)N(CC(O)CO)c1c(I)c(C(=O)NCC(O)CO)c(I)c(C(=O)NCC(O)CO)c1I (centres undefined) [Iohexol]
LC retention time [1]: 5.51 min

CSc1nc(N)nc(NC(C)(C)C)n1 [Irgarol-Metabolit 1 (Terbutryn-desethyl)]
LC retention time [1]: 13.4 min

CSc1nc(NC2CC2)nc(NC(C)(C)C)n1 [Irgarol]
LC retention time [1]: 15.4 min

C[N+](C)(C)C[C@H](O)CC(=O)[O-] [L-Carnitin]
LC retention time [1]: 9.28 min

O=c1[nH]c2c(c(=O)n1C1CCCCC1)CCC2 [Lenacil]
LC retention time [1]: 13.1 min

CCN(CC)CC(=O)Nc1c(C)cccc1C [Lidocaine]
LC retention time [1]: 14.9 min

CCCCCC=CCC=CCCCCCCCC(=O)O [Linoleic acid]
LC retention time [1]: 17.6 min

CC#Cc1cc(C)nc(Nc2ccccc2)n1 [Mepanipyrim]
LC retention time [1]: 15 min

CCC1(c2cccc(O)c2)CCCCN(C)C1 (centres undefined) [Meptazinole]
LC retention time [1]: 14.4 min

C#CC1(O)CCC2C3CCc4cc(OC)ccc4C3CCC21C (centres undefined) [Mestranol]
LC retention time [1]: 14.3 min

Cc1nnc(-c2ccccc2)c(=O)n1N [Metamitron]
LC retention time [1]: 9 min

Cc1cccc(C)c1N(Cn1cccn1)C(=O)CCl [Metazachlor]
LC retention time [1]: 13.3 min

CNC(=O)Oc1cc(C)c(SC)c(C)c1 [Methiocarb]
LC retention time [1]: 14.3 min

COC(=O)c1ccccc1S(N)(=O)=O [Methyl 2-(aminosulfonyl)benzoate]
LC retention time [1]: 8.1 min

CN(CCO)CCO [Methyl diethanolamine]
LC retention time [1]: 2.65 min

Cn1sc(Cl)cc1=O [Methylchloroisothiazolinone]
LC retention time [1]: 6.48 min

CCN(CC)CCNC(=O)c1cc(Cl)c(N)cc1OC [Metoclopramide]
LC retention time [1]: 12.3 min

CSc1nnc(C(C)(C)C)c(=O)[nH]1 [Metribuzin-desamino]
LC retention time [1]: 11.6 min

CNC(=O)C=C(C)OP(=O)(OC)OC [Monocrotophos (Crisodin)]
LC retention time [1]: 8.11 min

CN(C)C(=O)Nc1ccc(Cl)cc1 [Monuron]
LC retention time [1]: 11.3 min

O=C(O)CC[C@@H](C(=O)O)N(CC(=O)O)CC(=O)O [N,N-Bis(carboxymethyl)-L-glutamic acid]
LC retention time [1]: 13 min

CCCCCCCCCCCC[N+](C)(C)[O-] [N,N-Dimethyldodecylamine N-oxide]
LC retention time [1]: 16.8 min

CC(=O)Nc1c(C)n(C)n(-c2ccccc2)c1=O [N-Acetyl-4-aminoantipyrine]
LC retention time [1]: 7.94 min

CCNc1ccccc1 [N-Ethylaniline]
LC retention time [1]: 12.2 min

Cc1c(NC=O)c(=O)n(-c2ccccc2)n1C [N-Formyl-4-aminoantipyrine]
LC retention time [1]: 7.81 min

CC(=O)N(C)c1ccccc1 [N-Methylacetanilide]
LC retention time [1]: 11.2 min

CCN(CC)C(=O)C(C)Oc1cccc2ccccc12 (centres undefined) [Napropamide]
LC retention time [1]: 15.1 min

CNC(=O)CSP(=O)(OC)OC [Omethoate]
LC retention time [1]: 6.12 min

NC(=O)N1c2ccccc2CC(=O)c2ccccc21 [Oxcarbazepine]
LC retention time [1]: 11.7 min

CCC(CC)Nc1c([N+](=O)[O-])cc(C)c(C)c1[N+](=O)[O-] [Pendimethalin]
LC retention time [1]: 17.5 min

CCOCCN(C(=O)CCl)C(=C(C)C)c1ccccc1 [Pethoxamid]
LC retention time [1]: 15.3 min

CCOc1ccc(NC(C)=O)cc1 [Phenacetin]
LC retention time [1]: 9.9 min

O=C1CC=Cc2ncc3ccccc3c21 [Phenanthridinon]
LC retention time [1]: 13.2 min

COC(=O)Nc1cccc(OC(=O)Nc2cccc(C)c2)c1 [Phenmedipham]
LC retention time [1]: 13.6 min

CCCCOCCOCCOCc1cc2c(cc1CCC)OCO2 [Piperonyl butoxide]
LC retention time [1]: 15.3 min

CNC(=O)Oc1cc(C)cc(C(C)C)c1 [Promecarb]
LC retention time [1]: 15 min

CC(C)N(C(=O)C(=O)O)c1ccccc1 [Propachlor oxanilic acid (OA)]
LC retention time [1]: 11.3 min

CC(C)N(C(=O)CCl)c1ccccc1 [Propachlor]
LC retention time [1]: 13.3 min

CNC(=O)Oc1ccccc1OC(C)C [Propoxur (baygon)]
LC retention time [1]: 11.9 min

C#CC(C)(C)NC(=O)c1cc(Cl)cc(Cl)c1 [Propyzamide]
LC retention time [1]: 14.6 min

CCCN(CCC)C(=O)SCc1ccccc1 [Prosulfocarb]
LC retention time [1]: 16.9 min

CC(C)(C)c1ccc(CSc2cnn(C(C)(C)C)c(=O)c2Cl)cc1 [Pyridaben]
LC retention time [1]: 18.3 min

Cc1cc(C)nc(Nc2ccccc2)n1 [Pyrimethanil]
LC retention time [1]: 14.2 min

CC(COc1ccc(Oc2ccccc2)cc1)Oc1ccccn1 (centres undefined) [Pyriproxyfen]
LC retention time [1]: 17.4 min

On1ccccc1=S [Pyrithione]
LC retention time [1]: 9.52 min

CNC(=C[N+](=O)[O-])NCCSCc1ccc(CN(C)C)o1 [Ranitidine]
LC retention time [1]: 10.2 min

Oc1ccc(C=Cc2cc(O)cc(O)c2)cc1 [Resveratrol]
LC retention time [1]: 15.4 min

CC(N)C12CC3CC(CC(C3)C1)C2 (centres undefined) [Rimantadin]
LC retention time [1]: 13.9 min

CCNc1nc(NCC)nc(OC)n1 [Simeton]
LC retention time [1]: 11.6 min

CC(C)NCC(O)c1ccc(NS(C)(=O)=O)cc1 (centres undefined) [Sotalol]
LC retention time [1]: 7.74 min

CC(=O)SC1CC2=CC(=O)CCC2(C)C2CCC3(C)C(CCC34CCC(=O)O4)C12 (centres undefined) [Spironolactone]
LC retention time [1]: 14.2 min

Cc1cc(C)nc(NS(=O)(=O)c2ccc(N)cc2)n1 [Sulfamethazine]
LC retention time [1]: 7.4 min

Cc1nnc(NS(=O)(=O)c2ccc(N)cc2)s1 [Sulfamethizol]
LC retention time [1]: 5.94 min

Nc1ccc(S(=O)(=O)Nc2ccccn2)cc1 [Sulfapyridine]
LC retention time [1]: 6.64 min

C=CC1C(OC2OC(CO)C(O)C(O)C2O)OC=C2C(=O)OCCC21 (centres undefined) [Sweroside]
LC retention time [1]: 8.69 min

N#CSCSc1nc2ccccc2s1 [TCMTB]
LC retention time [1]: 14.1 min

CC(C)N(Cc1ccccc1)C(=O)C(C)(C)C [Tebutam]
LC retention time [1]: 14.3 min

CC(Cn1cnc2c(N)ncnc21)OCP(=O)(O)O (centres undefined) [Tenofovir]
LC retention time [1]: 2.02 min

CCNc1nc(NC(C)(C)C)nc(OC)n1 [Terbumeton]
LC retention time [1]: 14.3 min

CCNc1nc(Cl)nc(NC(C)(C)C)n1 [Terbuthylazine]
LC retention time [1]: 14.4 min

CC12CCC(=O)C=C1CCC1C2CCC2(C)C(O)CCC12 (centres undefined) [Testosterone]
LC retention time [1]: 14.6 min

FC(F)C(F)(F)OCC(Cn1cncn1)c1ccc(Cl)cc1Cl (centres undefined) [Tetraconazole]
LC retention time [1]: 15.3 min

Cn1c(=O)c2[nH]cnc2n(C)c1=O [Theophyllin]
LC retention time [1]: 6.11 min

CC(=O)c1cc2c(cc1C)C(C)(C)C(C)CC2(C)C (centres undefined) [Tonalide]
LC retention time [1]: 18.2 min

Cc1c(C(=O)c2c[nH]n(C)c2=O)ccc(S(C)(=O)=O)c1C1=NOCC1 [Topramezone]
LC retention time [1]: 7.42 min

COc1cccc(C2(O)CCCCC2CN(C)C)c1 (centres undefined) [Tramadol]
LC retention time [1]: 14 min

CS(=O)(=O)OCC(O)C(O)COS(C)(=O)=O (centres undefined) [Treosulfan]
LC retention time [1]: 3.77 min

CCCCOCCOCCOCCO [Triethylene Glycol Monobutyl Ether]
LC retention time [1]: 11.5 min

O=P(OCCCCl)(OCCCCl)OCCCCl [Tris(3-chloropropyl) phosphate]
LC retention time [1]: 14.6 min

CCC(C)(NC(=O)c1cc(Cl)c(C)c(Cl)c1)C(=O)CCl (centres undefined) [Zoxamide]
LC retention time [1]: 16 min

Cc1ccccc1N [o-Toluidine]
LC retention time [1]: 9.21 min

Cc1ccccc1N=C=O [o-Tolyl isocyanate]
LC retention time [1]: 8.18 min
